For the experiment, the system named is M. smegmatis clone overexpressing recombinant MtbTopI (M+ strain). Nature of the experiment: microbe, parasite or virus in culture. It is filed as cell-based, Mycobacterium smegmatis. Conditions: Mycolicibacterium smegmatis.
Where [1] appears, read: 48 h, read-out: M+ Growth Inhibition (MIC).
The mark [2] stands for this setting: read-out: M+ Growth Inhibition with TZ (MIC).

Values after ≈ are worked out from the molar mass of the structure shown. Where two headings read alike, the source gives them in different places.

For `Cc1c(C(=O)N2CCC(c3nnc(-c4nccc5ccccc45)o3)CC2)oc2ccccc12` [Compound 2], the MIC is, setting by setting: under setting [1], more than 250 µM; under setting [2], 62.5 µM (≈ 27.4 µg/mL).

With `COc1ccc2c(c1)NC1(CCN(C(=O)Cc3c[nH]c4ccccc34)CC1)NS2(=O)=O` [Compound 3], the MIC reads like this: under setting [1], more than 250 µM; under setting [2], 62.5 µM (≈ 27.5 µg/mL).

With `Cc1ccc(CN2C[C@]34C=C[C@H](O3)C(C(=O)N3CCn5cccc5C3)C4C2=O)cc1C` (stereo partly shown) [Compound 7], the MIC was more than 500 µM under setting [1] and more than 500 µM under setting [2].

On to `Cc1cc2oc(C(=O)N3CCC(c4nc5ccccc5[nH]4)CC3)c(C)c2cc1C` [Compound 8], for which the MIC is more than 500 µM under setting [1] and 31.3 µM (≈ 12.1 µg/mL) under setting [2].

For `Cc1ccc2[nH]c(C3CCN(C(=O)c4oc5ccc(C)cc5c4C)CC3)nc2c1` [Compound 9], the MIC is, setting by setting: under setting [1], more than 500 µM; under setting [2], 31.3 µM (≈ 12.1 µg/mL).

As to `Cc1ccc2oc(C(=O)N3CCC(O)(c4cccc(C(F)(F)F)c4)CC3)c(C)c2c1` [Compound 10], the MIC under setting [1] was more than 500 µM and the MIC under setting [2] came to 46.9 µM (≈ 19.6 µg/mL).

On to `Cc1c(C(=O)N2CCCCC2CCc2ccc(O)cc2)oc2c(F)cccc12` (stereo not shown) [Compound 11], for which the MIC is more than 500 µM under setting [1] and 125 µM (≈ 47.7 µg/mL) under setting [2].

As for `Cc1ccc2c(C)c(C(=O)N3CCC4(CC(=O)c5ccccc5O4)C3)oc2c1` (stereo not shown) [Compound 12], the MIC by setting is: under setting [1], more than 500 µM; under setting [2], more than 500 µM.

(Values after article PMC5780498, “Discovery of novel bacterial topoisomerase I inhibitors by use of in silico docking and in vitro assays” (Scientific Reports, 2018).)
